Laboratory results published in PubChem BioAssay (NCI).
Where “and” joins values, the source holds several entries; their conditions need not be identical. Equal entries are not always repeated.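 Briefly, cells in 96-well plates were exposed to five compound concentrations for 48 h, and endpoints were estimated by linear interpolation. GI50 is the concentration that inhibits growth by half. TGI: concentration producing complete growth inhibition.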

Key:
Assay in all cases: DTP human tumour cell line panel, 48 h
CAKI-1 renal = tested on: CAKI-1 renal
HCT-15 colon = tested on: HCT-15 colon
KM12 colon = tested on: KM12 colon
M14 melanoma = tested on: M14 melanoma
SF-539 CNS = tested on: SF-539 CNS
SK-MEL-2 melanoma = tested on: SK-MEL-2 melanoma
SNB-75 CNS = tested on: SNB-75 CNS
UACC-257 melanoma = tested on: UACC-257 melanoma
UACC-62 melanoma = tested on: UACC-62 melanoma
SK-MEL-5 melanoma = tested on: SK-MEL-5 melanoma

Compound	TGI (CAKI-1 renal)	TGI (HCT-15 colon) [µM]	TGI (KM12 colon)	TGI (M14 melanoma)	TGI (SF-539 CNS)	TGI (SK-MEL-2 melanoma) [µM]	TGI (SNB-75 CNS)	TGI (UACC-257 melanoma) [µM]	TGI (UACC-62 melanoma) [µM]	TGI (SK-MEL-5 melanoma) [µM]	GI50 (CAKI-1 renal) [µM]	GI50 (HCT-15 colon) [µM]	GI50 (KM12 colon) [µM]	GI50 (M14 melanoma)	GI50 (SF-539 CNS)	GI50 (SK-MEL-2 melanoma) [µM]	GI50 (SK-MEL-5 melanoma) [µM]	GI50 (UACC-257 melanoma)	GI50 (UACC-62 melanoma)	GI50 (SNB-75 CNS)
NC(N)=NS(=O)(=O)c1ccc(NC(=O)c2ccc(Cl)c3c(Nc4ccc(S(=O)(=O)N=C(N)N)cc4)c4ccccc4nc23)cc1	> 100 µM	> 100	> 100 µM	> 100 µM	> 100 µM	> 100	98.5 µM	> 100	> 100	–	–	–	–	–	–	–	–	–	–	–
C/C(=C\c1ccccc1)C(O)S(=O)(=O)O (configuration not stated)	> 100 µM	> 100	> 100 µM	> 100 µM	–	> 100	> 100 µM	> 100	> 100	> 100	–	–	–	–	–	–	–	–	–	–
CC(C)(C)OC(=O)N(CCCn1c2c(c3ccccc3c1=O)C(=O)c1ccccc1-2)CCN(CCCn1c2c(c3ccccc3c1=O)C(=O)c1ccccc1-2)C(=O)OC(C)(C)C	> 50 µM	> 50	> 50 µM	> 50 µM	> 50 µM	> 50	–	> 50	> 50	> 50	37.9	24.2	> 50	> 50 µM	> 50 µM	> 50	> 50	> 50 µM	45.3 µM	–
CNC1=C(Br)C(=O)C2=C(C1=O)C1C3=C(C(=O)C=CC3=O)C2c2ccccc21 (configuration not stated)	13.9 µM	5.55	48.7 µM	11.5 µM	–	> 28.4	24.5 µM	> 100	6.85	18.6	6.14	2.19	14.4	1.98 µM	–	11	5.52	12.7 µM	2.52 µM	3.88 µM
CC(=O)N1C(=O)C(=O)c2cc(Cl)ccc21	–	> 100	> 100 µM	> 100 µM	> 100 µM	–	> 100 µM	–	> 100	> 100	–	–	–	–	–	–	–	–	–	–
CC1=C(CC/C(C)=C/CCC2(C)CCC([C@H](C)C(=O)O)OO2)C(C)(C)CCC1 (some centres not stated) (tested in a mixture with another compound)	> 100 µM	–	> 100 µM	> 100 µM	> 100 µM	> 100	> 100 µM	> 100	–	–	–	–	–	–	–	–	–	–	–	–
O=C1c2ccccc2C(=O)N1C/C=N/NS(=O)(=O)c1ccc(Cl)cc1	> 100 µM	> 100	–	> 100 µM	> 100 µM	> 100	> 100 µM	> 100	> 100	> 100	–	–	–	–	–	–	–	–	–	–
S=C(S)NCCCn1ccnc1	> 100 µM	> 100	> 100 µM	> 100 µM	> 100 µM	> 100	–	> 100	> 100	> 100	–	–	–	–	–	–	–	–	–	–
CC(=O)OC1C(O)COC(Oc2c(C)c3c4c(c2O)[C@@H](C)CC[C@@H]4[C@@H](C)C[C@H]3C=C(C)C)C1O (some centres not stated)	32.2 µM	31.7	30.8 µM	31.5 µM	–	> 100	–	–	36	32.4	16.9	15.2	14.8	14.6 µM	–	42.7	15.3	–	16.3 µM	–
CCN(CC)CCNc1ccc(CO)c2sc3ccccc3c(=O)c12	26.4 µM [middle of 4 runs]	–	26 µM [middle of 4 runs]	4.2 µM and 25.1 µM and 4.3 µM	24.1 µM [middle of 4 runs]	–	17.7 µM and 29.1 µM and 9.2 µM	–	–	–	3.03	–	–	1.99 µM and 12.4 µM and 2.03 µM	4.53 µM and 7.78 µM and 16.7 µM	–	–	1.7 µM and 3.79 µM	1.94 µM and 11.3 µM	4.27 µM and 14.4 µM and 2.33 µM
COc1ccc(CNCCCN2C(=O)c3ccc4c5c(ccc(c35)C2=O)C(=O)N(CCCNCCCCNCCCN)C4=O)c(OC)c1OC	44.9 µM	7.94	7.53 µM	3.57 µM	5.3 µM	4.11	3.63 µM	1.38	4.37	–	4.49	2.76	1.27	1.66 µM	2.23 µM	1.72	–	0.334 µM	1.48 µM	1.27 µM
O=C(Oc1ccccc1Cl)c1cccnc1Nc1ccnc(C(F)(F)F)c1	50 µM	29.1	32.6 µM	–	39.8 µM	21.8	–	63.5	18.7	27	23.1	14.6	14.4	–	13.4 µM	6.79	14	21.4 µM	6.13 µM	–
Cc1cc2cc(Oc3ccnc(Nc4cccc(CS(=O)(=O)NCCN(C)C)c4)n3)ccc2[nH]1	16.6 µM	24.2	13.3 µM	–	13.3 µM	25.7	4.89 µM	4.79	14.4	3.5	3.31	11	1.29	–	3.05 µM	11.5	1.86	2.33 µM	3.85 µM	1.31 µM
CCC1N2CCCCC2[C@@H]2c3[nH]c4ccccc4c3CCN12 (some centres not stated)	> 100 µM	> 100	–	> 100 µM	> 100 µM	> 100	> 100 µM	> 100	> 100	> 100	–	–	–	–	–	–	–	–	–	–
Cn1c(-c2c(N)n(Cc3ccc(Cl)cc3)c3nc(C#N)c(C#N)nc23)nc2ccccc21	18.7 µM	> 50	32.2 µM	42.6 µM	14.5 µM	> 50	–	> 50	9.71	16.5	7.15	4.55	2.76	10.6 µM	6.64 µM	> 50	5.24	13.5 µM	2.26 µM	–
COc1cc2c(C#N)n3c(c2cc1OC)C(=O)C(c1ccccc1)Oc1ccccc1-3 (configuration not stated)	–	–	> 100 µM	–	> 100 µM	–	24.6 µM	–	–	–	–	–	3.36	–	19.8 µM	–	–	–	–	4.39 µM
CC(=O)C1C(=O)C(=O)N(c2ccc(Cl)cc2C)C1=O (configuration not stated)	–	> 100	> 100 µM	> 100 µM	> 100 µM	> 100	–	> 100	> 100	> 100	–	–	–	–	–	–	–	–	–	–
CC(C)[C@H](COC(C)(C)C)N=CN1CSc2ccccc21	–	> 100	> 100 µM	> 100 µM	65.6 µM	> 100	77.1 µM	–	> 100	63	–	–	–	–	–	–	–	–	–	–
